Patent EP2085394B1, “Metronidazole derivatives as antiparasitic agents” (University of Jordan, priority 2008, dated 2009)
≈ marks a conversion by molar mass, not a printed value.

Legend:
Format in all cases: cell-based
[1] = test system: Leishmania donovani promastigotes; assay: Antileishmanial activity, 96-well plates; conditions: for lethal activity: Leishmania donovani promastigotes, result in words; for IC50: Leishmania donovani; for IC50 / IC100 Leishmania donovani: promastigotes, 72 h, 24°C
Protocol: (§1) Entamoeba histolytica HK-9 strain (ATCC number 30015) was cultured in LYI-S-2 medium supplemented with antibiotics. Giardia intestinalis WB strain (ATCC number 30957) was grown in a modified YI-S medium with antibiotics. Both parasites were cultivated in 15-mL screw-capped borosilicate glass tubes containing 13 mL medium. The tubes were incubated on a 15° horizontal slant at (36-37) °C. Culture maintenance and subculturing was performed as described by Clark and Diamond. Entamoeba and Giardia were harvested from confluent cultures by chilling of the tubes on ice for 5-10 min to detach cells, followed by centrifugation at 800 x g for 5 min. Leishmania donovani and L. tropica promastigotes were cultured in Schneider's medium containing 20 % foetal calf serum and antibiotics at 24°C. Stationary phase promastigotes were harvested by centrifugation at 1000 x g for 10 min.
(§2) The antileishmanial activity of metronidazole-derivatives was tested in 96-well plates. Each of the meronidazole-derivatives and the reference drugs were dissolved in 10 µL of dimethyl sulfoxide (DMSO) and were completed with […] growth medium. The solutions were filter sterilized using 0.22 µm syringe filters. Then, 170 µL-two fold serial dilutions of each of the compounds and metronidazole starting at a concentration of 2000 µg/mL in culture medium were prepared in flat bottomed 96-well microtiter plates of 400-µL-well-capacity. A suspension containing 10^5 of Leishmania promastigotes per milliliter culture medium was prepared and 170-µL portions of the suspension were added to the appropriate wells. Plates were covered with the microtiter plate lids and incubated at 24°C. The number of parasites in each well was determined after 72 h by counting in a hemacytometer at the 10X objective lens. Leishmania viability was determined by observing promastigote motility. Each compound was assayed in duplicate in each of three independent experiments. In each assay two sets of controls were performed, one without any test compound and another with amphotericin B as a standard antileishmanial drug.
(§3) The minimal inhibitory concentration (MIC) defined as the minimum concentration of a compound at which no parasitic growth was observed. The 50% inhibitory concentration (IC50) was the concentration of compounds which cut the number of parasites to half that in the negative control (growth medium + DMSO + parasites).

[2] = test system: Leishmania tropica promastigotes; assay: Antileishmanial activity, 96-well plates; conditions: for lethal activity: Leishmania tropica promastigotes, result in words; for IC50: Leishmania tropica; for IC50 / IC100 Leishmania tropica: promastigotes, 72 h, 24°C
Protocol: as §1, §2, §3

Hep-2 cells = assay: Cytotoxicity assay, trypan blue exclusion; conditions: compared with the standard drug
Protocol: (§4) The cytotoxicity of the metronidazole-derivatives and the reference drugs was investigated on Hep-2 and Vero cells using the standard cytotoxicity assay and the trypan blue exclusion method, as described in the literature, with modifications. A cell suspension (10^5 cells/mL RPMI medium containing 10% inactivated foetal calf serum) was prepared from confluent cultures and 100 µL portions of the suspension were added to the wells of 96-well plates. The cells were incubated for 24 h at 37 °C and 5 % CO2 and the medium in each well was then replaced with fresh 150 µL medium. Solutions of the test compounds or reference drugs were prepared and sterilized as described above (Antiprotozolal activity). Then, 150 µL-two fold serial dilutions of each of the compounds and the reference drugs starting at a concentration of 2000 µg/mL in culture medium were prepared in the plates. After 48 hour incubation at 37 °C and 5 % CO2, the number of cells in each well was determined as follows: The medium in each well was gently replaced with 100 µL of 0.25% (w/v) trypsin-0.53 mM EDTA solution and the plates were incubated for 5 minute at 37 °C to detach the cells followed by the addition of 200 µL of trypan blue solution were added to each well and the plates were, then, placed on ice. The cells were counted in a hemacytometer at the 10X objective. Each compound or reference drug was assayed in duplicate in each of three independent experiments. In each assay the negative controls (without any test compound or reference drug) were included in duplicates. IC0 was the concentration of compound at which the number of cells in the well was more than or equal to that of the negative control (IC0 = no inhibition of cell growth). Table 1. Antiamoebic and antigiardial activities of compounds IA, IIA, and IIIA

Vero cells = assay: Cytotoxicity assay, trypan blue exclusion; conditions: compared with the standard drug
Protocol: as §4

[3] = test system: Giardia intestinalis WB strain; assay: Antigiardial activity, tube method; conditions: for IC100 Giardia intestinalis / IC50: 72 hours, (36-37) °C, parasite count; for IC50: Giardia duodenalis; for lethal activity / IC50 times less than that of metronidazole: Giardia intestinalis; for lethal activity: result in words; for IC50 times less than that of metronidazole: relative to the standard drug metronidazole
Protocol: as §1
(§5) The antiamoebic and antigiardial activities of metronidazole-derivatives were tested using the tube method according to published procedures with some modifications. Eight milligrams of a test compound or metronidazole were dissolved in 10 µL of dimethyl sulfoxide (DMSO) and completed with 10 mL growth medium. The solutions were filter sterilized using 0.22 µm syringe filters and the appropriate volumes of the solutions were taken to prepare the concentrations of each compound in 15-mL screw-capped borosilicate glass tubes. For each compound, concentrations of 60, 30, 15, 7.5, 3.5, 1.7, 0.8, 0.4, 0.2, 0.1, 0.05, 0.02, 0.01, 0.005 µg/mL medium were prepared in a final volume of 15 mL to exclude air from the tube. For more accurate determination of the biologically active concentration of the compound, other concentrations around the above mentioned ones were also tested. Each tube was inoculated with 20,000 cells of the parasite under testing (Entamoeba or Giardia). Each compound was assayed in duplicate in each of three independent experiments. In each assay, two sets of controls were performed, one without any test compound and another with metronidazole. The caps of Entamoeba and Giardia tubes were tightly screwed and wrapped with parafilm. The tubes were incubated on a 15° horizontal slant at (36-37) °C for 72 hours.
(§6) The number of parasites in the tubes was determined as described in the literature by counting in a hemacytometer at the 10X objective. For counting of Entamoeba and Giradia, the tubes were placed on ice to permit detachment of the parasite and centrifuged at 1000 x g for 10 min. The supernatant was discarded and 1 mL fresh medium was added to each tube. Then, 25 µL of the parasite suspension in each tube was mixed with 100 µL of 0.4 % trypan blue in phosphate buffered saline (PBS) to distinguish viable from dead parasites.
as §3

[4] = test system: Entamoeba histolytica HK-9 strain; assay: Antiamoebic activity, tube method; conditions: for IC100 Entamoeba histolytica / IC50: 72 hours, (36-37) °C, parasite count; for lethal activity / IC50 / IC50 times less than that of metronidazole: Entamoeba histolytica; for lethal activity: result in words; for IC50 times less than that of metronidazole: relative to the standard drug metronidazole
Protocol: as §1, §5, §6, §3

SMILES	lethal activity [1]	IC50 [1] [µg/mL]	IC100 Leishmania donovani [1] [µg/mL]	lethal activity [2]	IC50 [2] [µg/mL]	IC100 Leishmania tropica [2] [µg/mL]	cytotoxicity (Hep-2 cells)	cytotoxicity (Vero cells)	IC100 Giardia intestinalis [3] [µg/mL]	IC50 [3] [µg/mL]	lethal activity [3]	IC50 times less than that of metronidazole [3] [times]	IC100 Entamoeba histolytica [4] [µg/mL]	lethal activity [4]	IC50 [4] [µg/mL]	IC50 times less than that of metronidazole [4] [times]
Cc1ncc([N+](=O)[O-])n1CCN1CCN(CCO)CC1 [IIIA]	lethal activity	62.5 (≈ 221 µM)	250	lethal activity	62.5 (≈ 221 µM)	250	equivalent in cytotoxicity to the standard drug	equivalent in cytotoxicity to the standard drug	0.8	0.04 (≈ 0.141 µM)	potent lethal activity	20	0.8	potent lethal activity	0.04 (≈ 0.141 µM)	20
Cc1ncc([N+](=O)[O-])n1CCOc1ccc(C=O)cc1 [Compound IA, 4-[2-(2-methyl-5-nitro-1H-imidazol-1-yl)ethoxy]benzaldehyde]	lethal activity	300 (≈ 1090 µM)	2000	lethal activity	150 (≈ 545 µM)	2000	equivalent in cytotoxicity to the standard drug	equivalent in cytotoxicity to the standard drug	0.14	0.01 (≈ 0.0363 µM)	potent lethal activity	80	0.14	potent lethal activity	0.01 (≈ 0.0363 µM)	80
C[C@@H]1[C@H](O)[C@@H](C)/C=C/C=C/C=C/C=C/C=C/C=C/C=C/[C@H](O[C@@H]2O[C@H](C)[C@@H](O)[C@H](N)[C@@H]2O)C[C@@H]2O[C@](O)(C[C@@H](O)C[C@@H](O)[C@H](O)CC[C@@H](O)C[C@@H](O)CC(=O)O[C@H]1C)C[C@H](O)[C@H]2C(=O)O [Amphotericin B, reference compound]	–	0.08 (≈ 0.0866 µM)	2.5	–	0.08 (≈ 0.0866 µM)	2.5	–	–	–	–	–	–	–	–	–	–
Cc1ncc([N+](=O)[O-])n1CCO [Metronidazole, 2-(2-methyl-5-nitro-1H-imidazol-1-yl) ethanol]	–	2000 (≈ 11700 µM)	–	–	2000 (≈ 11700 µM)	–	–	–	3.2	0.8 (≈ 4.67 µM)	–	–	3.2	–	0.8 (≈ 4.67 µM)	–
Cc1ncc([N+](=O)[O-])n1CCNS(=O)(=O)c1sc(Cl)cc1Br [IIA]	lethal activity	300 (≈ 698 µM)	2000	lethal activity	150 (≈ 349 µM)	2000	equivalent in cytotoxicity to the standard drug	equivalent in cytotoxicity to the standard drug	0.3	0.04 (≈ 0.0931 µM)	potent lethal activity	20	0.3	potent lethal activity	0.04 (≈ 0.0931 µM)	20
